# US20260262643A1, “HERBICIDAL BENZOXAZINES” (FMC CORPORATION, priority 2022, published 2026)
# Assays:
# pigweed, palmer [1] = experiment: Test A preemergence; type: in vivo, Amaranthus palmeri
# Outline: (§1)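 Greenhouse pot test, 10 days. Compound (non-phytotoxic solvent, surfactant) sprayed on soil at seeding or on seedlings at one- to two-leaf stage. Visual injury rated 0–100 against untreated plants.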
# kochia [2] = experiment: Test A postemergence; type: in vivo, Bassia scoparia; details: postemergence, 10 days
# Outline: as §1
# oat, wild [3] = experiment: Test A postemergence; type: in vivo, Avena fatua; details: postemergence, 10 days
# Outline: as §1
# galium = experiment: Test A postemergence; type: in vivo, Galium aparine; details: postemergence, 10 days
# Outline: as §1
# goosegrass [4] = experiment: Test A postemergence; type: in vivo, Eleusine indica; details: postemergence, 10 days
# Outline: as §1
# soybean [5] = experiment: Test A preemergence; type: in vivo, Glycine max
# Outline: as §1
# ragweed [6] = experiment: Test A preemergence; type: in vivo, Ambrosia artemisiifolia
# Outline: as §1
# ducksalad = experiment: Test B flooded paddy test; type: in vivo, Heteranthera limosa; details: 250 g ai/ha, Flood, 13 days, 0 to 100 scale (0 no effect, 100 complete control)
# Outline: (§2)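 Percent weed or crop control, judged by eye on a 0–100 scale 13 days post-treatment, reflects compound added to a 3 cm flood maintained over 2-leaf plants in the greenhouse. Missing entries are marked with a dash.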
# soybean [7] = experiment: Test A postemergence; type: in vivo, Glycine max; details: postemergence, 10 days
# Outline: as §1
# oat, wild [8] = experiment: Test A preemergence; type: in vivo, Avena fatua
# Outline: as §1
# ragweed [9] = experiment: Test A postemergence; type: in vivo, Ambrosia artemisiifolia; details: postemergence, 10 days
# Outline: as §1
# wheat [10] = experiment: Test A preemergence; type: in vivo, Triticum aestivum
# Outline: as §1
# kochia [11] = experiment: Test A preemergence; type: in vivo, Bassia scoparia
# Outline: as §1
# wheat [12] = experiment: Test A postemergence; type: in vivo, Triticum aestivum; details: postemergence, 10 days
# Outline: as §1
# foxtail, giant [13] = experiment: Test A preemergence; type: in vivo, Setaria faberi
# Outline: as §1
# pigweed, palmer [14] = experiment: Test A postemergence; type: in vivo, Amaranthus palmeri; details: postemergence, 10 days
# Outline: as §1
# goosegrass [15] = experiment: Test A preemergence; type: in vivo, Eleusine indica
# Outline: as §1
# rice = experiment: Test B flooded paddy test; type: in vivo, Oryza sativa; details: 250 g ai/ha, Flood, 13 days, 0 to 100 scale (0 no effect, 100 complete control)
# Outline: as §2
# foxtail, giant [16] = experiment: Test A postemergence; type: in vivo, Setaria faberi; details: postemergence, 10 days
# Outline: as §1
# horseweed = experiment: Test A postemergence; type: in vivo, Erigeron canadensis; details: postemergence, 10 days
# Outline: as §1
# ryegrass, Italian [17] = experiment: Test A preemergence; type: in vivo, Lolium multiflorum
# Outline: as §1
# barnyardgrass = experiment: Test B flooded paddy test; type: in vivo, Echinochloa crus-galli; details: 250 g ai/ha, Flood, 13 days, 0 to 100 scale (0 no effect, 100 complete control)
# Outline: as §2
# ryegrass, Italian [18] = experiment: Test A postemergence; type: in vivo, Lolium multiflorum; details: postemergence, 10 days
# Outline: as §1
# blackgrass [19] = experiment: Test A postemergence; type: in vivo, Alopecurus myosuroides; details: postemergence, 10 days
# Outline: as §1
# corn [20] = experiment: Test A postemergence; type: in vivo, Zea mays; details: postemergence, 10 days
# Outline: as §1
# corn [21] = experiment: Test A preemergence; type: in vivo, Zea mays
# Outline: as §1
# blackgrass [22] = experiment: Test A preemergence; type: in vivo, Alopecurus myosuroides
# Outline: as §1
# sedge, umbrella = experiment: Test B flooded paddy test; type: in vivo, Cyperus difformis; details: 250 g ai/ha, Flood, 13 days, 0 to 100 scale (0 no effect, 100 complete control)
# Outline: as §2
# [23] = 125 g ai/ha, visual injury after 10 days, 0 to 100 scale, 0 is no effect, 100 is complete control
# [24] = 500 g ai/ha, 0 to 100 scale (0 no effect, 100 complete control), 10 days
# [25] = 125 g ai/ha, 0 to 100 scale, 0 no effect, 100 complete control
# [26] = 500 g ai/ha, visual injury, 0 to 100 scale (0 no effect, 100 complete control)
smiles,measurement,setting,value
C[C@H]1CN(C(=O)c2cccc(-n3cnc(C(C)(C)C)n3)c2)c2cccc(Cl)c2O1 [Compound 92],"Plant response rating, Pigweed, Palmer","pigweed, palmer [1]; [23]",100
same,"Plant response rating, Pigweed, Palmer","pigweed, palmer [1]; [24]",100
same,Kochia plant response rating,kochia [2]; [25],80
same,"Plant response rating, Kochia",kochia [2]; [26],90
same,"Oat, Wild plant response rating","oat, wild [3]; [25]",50
same,"Plant response rating, Oat, Wild","oat, wild [3]; [26]",70
same,Galium plant response rating,galium; [25],100
same,"Plant response rating, Galium",galium; [26],100
same,Goosegrass plant response rating,goosegrass [4]; [25],30
same,"Plant response rating, Goosegrass",goosegrass [4]; [26],50
same,"Plant response rating, Soybean",soybean [5]; [23],50
same,"Plant response rating, Soybean",soybean [5]; [24],90
same,"Plant response rating, Ragweed",ragweed [6]; [23],0
same,"Plant response rating, Ragweed",ragweed [6]; [24],30
same,"Plant response rating, Ducksalad",ducksalad,90
same,Soybean plant response rating,soybean [7]; [25],90
same,"Plant response rating, Soybean",soybean [7]; [26],100
same,"Plant response rating, Oat, Wild","oat, wild [8]; [23]",80
same,"Plant response rating, Oat, Wild","oat, wild [8]; [24]",90
same,Ragweed plant response rating,ragweed [9]; [25],60
same,"Plant response rating, Ragweed",ragweed [9]; [26],70
same,"Plant response rating, Wheat",wheat [10]; [23],30
same,"Plant response rating, Wheat",wheat [10]; [24],80
same,"Plant response rating, Kochia",kochia [11]; [23],70
same,"Plant response rating, Kochia",kochia [11]; [24],100
same,Wheat plant response rating,wheat [12]; [25],40
same,"Plant response rating, Wheat",wheat [12]; [26],50
same,"Plant response rating, Foxtail, Giant","foxtail, giant [13]; [23]",70
same,"Plant response rating, Foxtail, Giant","foxtail, giant [13]; [24]",100
same,"Pigweed, Palmer plant response rating","pigweed, palmer [14]; [25]",90
same,"Plant response rating, Pigweed, Palmer","pigweed, palmer [14]; [26]",90
same,"Plant response rating, Goosegrass",goosegrass [15]; [23],100
same,"Plant response rating, Goosegrass",goosegrass [15]; [24],100
same,"Plant response rating, Rice",rice,0
same,"Foxtail, Giant plant response rating","foxtail, giant [16]; [25]",30
same,"Plant response rating, Foxtail, Giant","foxtail, giant [16]; [26]",80
same,Horseweed plant response rating,horseweed; [25],0
same,"Plant response rating, Horseweed",horseweed; [26],50
same,"Plant response rating, Ryegrass, Italian","ryegrass, Italian [17]; [23]",100
same,"Plant response rating, Ryegrass, Italian","ryegrass, Italian [17]; [24]",100
same,"Plant response rating, Barnyardgrass",barnyardgrass,25
same,"Ryegrass, Italian plant response rating","ryegrass, Italian [18]; [25]",50
same,"Plant response rating, Ryegrass, Italian","ryegrass, Italian [18]; [26]",100
same,Blackgrass plant response rating,blackgrass [19]; [25],70
same,"Plant response rating, Blackgrass",blackgrass [19]; [26],90
same,Corn plant response rating,corn [20]; [25],30
same,"Plant response rating, Corn",corn [20]; [26],70
same,"Plant response rating, Corn",corn [21]; [23],30
same,"Plant response rating, Corn",corn [21]; [24],30
same,"Plant response rating, Blackgrass",blackgrass [22]; [23],80
same,"Plant response rating, Blackgrass",blackgrass [22]; [24],90
same,"Plant response rating, Sedge, Umbrella","sedge, umbrella",0
